Where two headings read alike, the source gives them in different places.
Assays:
Assay in all cases: pre-emergence greenhouse test
Format in all cases: in vivo
[1] = system: BRAPL (Brachiaria plantaginea); details: for observed activity in % destruction: pre-emergence
Summary of the method: (§1)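 Herbicide A and safener were formulated as 10% by weight suspension concentrates, herbicide B as commercial product, all diluted in water and sprayed onto soil just after sowing. Percent damage compared with untreated controls was recorded 8 and/or 20 DAT.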

[2] = system: ABUTH (Abutilon theophrasti); details: for observed activity in % destruction: pre-emergence, 50 g ai/ha
Summary of the method: as §1

[3] = system: PANDI (Panicum dichotomiflorum); details: for observed activity in % destruction: pre-emergence
Summary of the method: as §1

ERBVI = details: for observed activity in % destruction: pre-emergence, 25 g ai/ha
Summary of the method: as §1

[4] = system: PANMI (Panicum milliaceum)
Summary of the method: as §1

[5] = system: ECHCG (Echinochloa crus-galli); details: for inhibition at 25 g/ha: Echinochloa crus-galli, use rate 25 g ai/ha, read-out: observed % activity; for inhibition at 25 g/ha / observed activity in % destruction: pre-emergence
Summary of the method: as §1

[6] = system: LOLMU (Lolium multiflorum); details: for observed activity in % destruction: pre-emergence
Summary of the method: as §1

SETFA (Setaria faberii) = details: SETFA pre-emergence 25 g ai/ha
Summary of the method: as §1

SETVI (Setaria viridis) = details: for observed activity in % destruction: pre-emergence
Summary of the method: as §1

SOLNI (Solanum nigrum) = details: for inhibition at 50 g/ha: Solanum nigrum, use rate 50 g ai/ha, read-out: observed % activity; for inhibition at 50 g/ha / observed activity in % destruction: pre-emergence
Summary of the method: as §1

[7] = system: CCHEC (Cenchrus echinatus)
Summary of the method: as §1

[8] = system: AMARE (Amaranthus retroflexus); details: for inhibition at 12.5 g/ha: Amaranthus retroflexus, use rate 12.5 g ai/ha, read-out: observed % activity; for inhibition at 12.5 g/ha / observed activity in % destruction: pre-emergence
Summary of the method: as §1

[9] = BRAPL pre-emergence 6.25 g ai/ha
[10] = BRAPL pre-emergence 12.5 g ai/ha
[11] = ABUTH pre-emergence 6.25 g ai/ha
[12] = ABUTH pre-emergence 12.5 g ai/ha
[13] = PANDI pre-emergence 6.25 g ai/ha
[14] = ECHCG pre-emergence 12.5 g ai/ha
[15] = SETVI pre-emergence 6.25 g ai/ha
[16] = SETVI pre-emergence 12.5 g ai/ha

Compound: Cn1nc(C(F)(F)F)c(CS(=O)(=O)C2=NOC(C)(C)C2)c1OC(F)F [pyroxasulfone, 3-[5-(difluoromethoxy)-1-methyl-3-(trifluoromethyl)pyrazol-4-ylmethylsulfonyl]-4,5-dihydro-5,5-dimethyl-1,2-oxazole]
- observed % destruction 8 DAT [1, 9]: 30%
- observed % destruction 20 DAT [1, 9]: 70%
- observed % destruction 8 DAT [1, 10]: 35%
- observed % destruction 20 DAT [1, 10]: 80%
- observed % destruction 8 DAT ([1]; BRAPL pre-emergence 25 g ai/ha): 60%
- observed % destruction 20 DAT ([1]; BRAPL pre-emergence 25 g ai/ha): 95%
- observed % destruction 20 DAT ([1]; BRAPL pre-emergence 50 g ai/ha): 98%
- observed activity in % destruction ([1]; 12.5 g ai/ha, 8 DAT): 35%
- observed activity in % destruction ([1]; 12.5 g ai/ha, 20 DAT): 80%
- observed activity in % destruction ([1]; 25 g ai/ha, 8 DAT): 60%
- observed activity in % destruction ([1]; 25 g ai/ha, 20 DAT): 95%
- observed activity in % destruction ([1]; 50 g ai/ha, 8 DAT): 70%
- observed activity in % destruction ([1]; 50 g ai/ha, 20 DAT): 98%
- observed % destruction 8 DAT [2, 11]: 0%
- observed % destruction 20 DAT [2, 11]: 30%
- observed % destruction 8 DAT [2, 12]: 0%
- observed % destruction 20 DAT [2, 12]: 40%
- observed activity in % destruction ([2]; 8 DAT): 40%
- observed activity in % destruction ([2]; 20 DAT): 95%
- observed % destruction 8 DAT [3, 13]: 65%
- observed % destruction 20 DAT [3, 13]: 90%
- observed % destruction 8 DAT ([3]; PANDI pre-emergence 25 g ai/ha): 90%
- observed % destruction 20 DAT ([3]; PANDI pre-emergence 25 g ai/ha): 100%
- observed % destruction 8 DAT ([3]; PANDI pre-emergence 50 g ai/ha): 90%
- observed % destruction 20 DAT ([3]; PANDI pre-emergence 50 g ai/ha): 100%
- observed activity in % destruction ([3]; 6.25 g ai/ha, 8 DAT): 65%
- observed activity in % destruction ([3]; 6.25 g ai/ha, 20 DAT): 90%
- observed activity in % destruction ([3]; 12.5 g ai/ha, 8 DAT): 80%
- observed activity in % destruction ([3]; 12.5 g ai/ha, 20 DAT): 100%
- observed activity in % destruction ([3]; 50 g ai/ha, 8 DAT): 90%
- observed activity in % destruction ([3]; 50 g ai/ha, 20 DAT): 100%
- observed % destruction 20 DAT (ERBVI; ERBVI pre-emergence 6.25 g ai/ha): 40%
- observed % destruction 20 DAT (ERBVI; ERBVI pre-emergence 12.5 g ai/ha): 55%
- observed % destruction 8 DAT (ERBVI; ERBVI pre-emergence 25 g ai/ha): 60%
- observed % destruction 20 DAT (ERBVI; ERBVI pre-emergence 25 g ai/ha): 75%
- observed activity in % destruction (ERBVI; 8 DAT): 60%
- observed activity in % destruction (ERBVI; 20 DAT): 75%
- observed % destruction 20 DAT ([4]; PANMI pre-emergence 6.25 g ai/ha): 35%
- observed % destruction 20 DAT ([4]; PANMI pre-emergence 25 g ai/ha): 85%
- observed % destruction 8 DAT ([4]; PANMI pre-emergence 50 g ai/ha): 75%
- observed % destruction 20 DAT ([4]; PANMI pre-emergence 50 g ai/ha): 90%
- observed % destruction 8 DAT [5, 14]: 70%
- observed % destruction 20 DAT [5, 14]: 98%
- observed % destruction 8 DAT ([5]; ECHCG pre-emergence 25 g ai/ha): 75%
- observed % destruction 20 DAT ([5]; ECHCG pre-emergence 25 g ai/ha): 98%
- observed % destruction 8 DAT ([5]; ECHCG pre-emergence 50 g ai/ha): 90%
- observed % destruction 20 DAT ([5]; ECHCG pre-emergence 50 g ai/ha): 100%
- inhibition at 25 g/ha ([5]; 192 h, 8 DAT): 75%
- inhibition at 25 g/ha ([5]; 480 h, 20 DAT): 98%
- observed activity in % destruction ([5]; 12.5 g ai/ha, 8 DAT): 70%
- observed activity in % destruction ([5]; 12.5 g ai/ha, 20 DAT): 98%
- observed activity in % destruction ([5]; 25 g ai/ha, 8 DAT): 75%
- observed activity in % destruction ([5]; 25 g ai/ha, 20 DAT): 98%
- observed activity in % destruction ([5]; 50 g ai/ha, 8 DAT): 90%
- observed activity in % destruction ([5]; 50 g ai/ha, 20 DAT): 100%
- observed % destruction 20 DAT ([6]; LOLMU pre-emergence 6.25 g ai/ha): 50%
- observed % destruction 20 DAT ([6]; LOLMU pre-emergence 12.5 g ai/ha): 65%
- observed % destruction 20 DAT ([6]; LOLMU pre-emergence 50 g ai/ha): 98%
- observed activity in % destruction ([6]; 6.25 g ai/ha, 8 DAT): 40%
- observed activity in % destruction ([6]; 6.25 g ai/ha, 20 DAT): 50%
- observed activity in % destruction ([6]; 12.5 g ai/ha, 8 DAT): 50%
- observed activity in % destruction ([6]; 12.5 g ai/ha, 20 DAT): 65%
- observed activity in % destruction ([6]; 50 g ai/ha, 8 DAT): 90%
- observed activity in % destruction ([6]; 50 g ai/ha, 20 DAT): 98%
- observed % destruction 20 DAT (SETFA (Setaria faberii)): 98%
- observed % destruction 8 DAT (SETVI (Setaria viridis); [15]): 30%
- observed % destruction 20 DAT (SETVI (Setaria viridis); [15]): 75%
- observed % destruction 8 DAT (SETVI (Setaria viridis); [16]): 70%
- observed % destruction 20 DAT (SETVI (Setaria viridis); [16]): 95%
- observed % destruction 8 DAT (SETVI (Setaria viridis); SETVI pre-emergence 25 g ai/ha): 80%
- observed % destruction 20 DAT (SETVI (Setaria viridis); SETVI pre-emergence 25 g ai/ha): 98%
- observed % destruction 8 DAT (SETVI (Setaria viridis); SETVI pre-emergence 50 g ai/ha): 90%
- observed % destruction 20 DAT (SETVI (Setaria viridis); SETVI pre-emergence 50 g ai/ha): 100%
- observed activity in % destruction (SETVI (Setaria viridis); 6.25 g ai/ha, 8 DAT): 30%
- observed activity in % destruction (SETVI (Setaria viridis); 6.25 g ai/ha, 20 DAT): 75%
- observed activity in % destruction (SETVI (Setaria viridis); 12.5 g ai/ha, 8 DAT): 70%
- observed activity in % destruction (SETVI (Setaria viridis); 12.5 g ai/ha, 20 DAT): 95%
- observed activity in % destruction (SETVI (Setaria viridis); 50 g ai/ha, 8 DAT): 90%
- observed activity in % destruction (SETVI (Setaria viridis); 50 g ai/ha, 20 DAT): 100%
- observed % destruction 20 DAT (SOLNI (Solanum nigrum); SOLNI pre-emergence 6.25 g ai/ha): 50%
- observed % destruction 20 DAT (SOLNI (Solanum nigrum); SOLNI pre-emergence 12.5 g ai/ha): 70%
- observed % destruction 20 DAT (SOLNI (Solanum nigrum); SOLNI pre-emergence 25 g ai/ha): 90%
- observed % destruction 8 DAT (SOLNI (Solanum nigrum); SOLNI pre-emergence 50 g ai/ha): 50%
- observed % destruction 20 DAT (SOLNI (Solanum nigrum); SOLNI pre-emergence 50 g ai/ha): 95%
- inhibition at 50 g/ha (SOLNI (Solanum nigrum); 192 h, 8 DAT): 50%
- inhibition at 50 g/ha (SOLNI (Solanum nigrum); 480 h, 20 DAT): 95%
- observed activity in % destruction (SOLNI (Solanum nigrum); 12.5 g ai/ha, 8 DAT): 30%
- observed activity in % destruction (SOLNI (Solanum nigrum); 12.5 g ai/ha, 20 DAT): 70%
- observed activity in % destruction (SOLNI (Solanum nigrum); 25 g ai/ha, 8 DAT): 30%
- observed activity in % destruction (SOLNI (Solanum nigrum); 25 g ai/ha, 20 DAT): 90%
- observed activity in % destruction (SOLNI (Solanum nigrum); 50 g ai/ha, 8 DAT): 50%
- observed activity in % destruction (SOLNI (Solanum nigrum); 50 g ai/ha, 20 DAT): 95%
- observed % destruction 20 DAT ([7]; CCHEC pre-emergence 6.25 g ai/ha): 35%
- observed % destruction 20 DAT ([7]; CCHEC pre-emergence 12.5 g ai/ha): 65%
- observed % destruction 20 DAT ([8]; AMARE pre-emergence 12.5 g ai/ha): 95%
- observed % destruction 8 DAT ([8]; AMARE pre-emergence 25 g ai/ha): 80%
- observed % destruction 20 DAT ([8]; AMARE pre-emergence 25 g ai/ha): 100%
- inhibition at 12.5 g/ha ([8]; 192 h, 8 DAT): 80%
- inhibition at 12.5 g/ha ([8]; 480 h, 20 DAT): 95%
- observed activity in % destruction ([8]; 12.5 g ai/ha, 8 DAT): 80%
- observed activity in % destruction ([8]; 12.5 g ai/ha, 20 DAT): 95%
- observed activity in % destruction ([8]; 25 g ai/ha, 8 DAT): 80%
- observed activity in % destruction ([8]; 25 g ai/ha, 20 DAT): 100%
- observed activity in % destruction ([8]; 50 g ai/ha, 8 DAT): 90%
- observed activity in % destruction ([8]; 50 g ai/ha, 20 DAT): 100%
